Assay results published in the supplement of paper PMC10331698.
± gives the standard deviation of the averaged measurements.

What was measured:
Assay in all cases: level (log10 ratio to DMSO vehicle control); higher = higher biomarker level / cell amount than vehicle control
Details in all cases: in DMSO
[1] = compound: C=C(C)C(=O)OCC(F)(F)C(F)(F)C(F)(F)C(F)(F)C(F)(F)C(F)(F)C(F)(F)F
Method: (§1)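 BioMAP Diversity Plus panel of 12 human primary cell co-culture systems (3C, 4H, LPS, SAg, BT, BF4T, BE3C, CASM3C, HDF3CGF, KF3CT, MyoF, Mphg). Compounds were added 1 h before stimulation and left for 24 h (MyoF 48 h; BT 72 h for soluble read-outs or 6 d for IgG). Biomarkers were read by ELISA, cytotoxicity by SRB, PBMC viability and proliferation by Alamar Blue. Each well value was divided by the mean of 8 DMSO control wells on the same plate and log10 transformed; duplicate blinded samples were tested at 4 concentrations.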

[2] = compound: CC(C)(C)C(=O)CC(=O)C(F)(F)C(F)(F)C(F)(F)F [(Heptafluorobutanoyl)pivaloylmethane]
Method: as §1

Perfluorooctanamide = compound: NC(=O)C(F)(F)C(F)(F)C(F)(F)C(F)(F)C(F)(F)C(F)(F)C(F)(F)F [Perfluorooctanamide]
Method: as §1

Hexafluoroglutaric acid = compound: O=C(O)C(F)(F)C(F)(F)C(F)(F)C(=O)O [Hexafluoroglutaric acid]
Method: as §1

[3] = compound: O=C(O)C(F)(F)OC(F)(F)C(F)(F)OC(F)(F)C(F)(F)C(F)(F)C(F)(F)F [Perfluoro-3,6-dioxadecanoic acid]
Method: as §1

[4] = compound: O=S(=O)(O)C(F)(F)C(F)(F)C(F)(F)C(F)(F)C(F)(F)C(F)(F)C(F)(F)C(F)(F)F [Perfluorooctanesulfonic acid]
Method: as §1

[5] = compound: O=S(=O)(O)C(F)(F)C(F)(F)C(F)(F)C(F)(F)C(F)(F)C(F)(F)C(F)(F)C(F)(F)F [Potassium perfluorooctanesulfonate]
Method: as §1

| Test System | level (log10) ([1]; 6700 nM) | level (log10) ([1]; 20000 nM) | level (log10) ([2]; 6700 nM) | level (log10) ([2]; 20000 nM) | level (log10) ([2]; 60000 nM) | level (log10) (Perfluorooctanamide; 6700 nM) | level (log10) (Perfluorooctanamide; 20000 nM) | level (log10) (Perfluorooctanamide; 60000 nM) | level (log10) (Hexafluoroglutaric acid; 6700 nM) | level (log10) (Hexafluoroglutaric acid; 20000 nM) | level (log10) (Hexafluoroglutaric acid; 60000 nM) | level (log10) ([3]; 6700 nM) | level (log10) ([3]; 20000 nM) | level (log10) ([3]; 60000 nM) | level (log10) ([4]; 6700 nM) | level (log10) ([4]; 20000 nM) | level (log10) ([4]; 60000 nM) | level (log10) ([5]; 6700 nM) | level (log10) ([5]; 20000 nM) | level (log10) ([5]; 60000 nM) |
| --- | --- | --- | --- | --- | --- | --- | --- | --- | --- | --- | --- | --- | --- | --- | --- | --- | --- | --- | --- | --- |
| 3C:Proliferation | -0.0365 ± 0.039 | -0.0595 ± 0.037 | -0.0155 ± 0.054 | -0.044 ± 0.033 | -0.379 ± 0.24 | 0.0165 ± 0.0021 | 0 ± 0.014 | -0.081 ± 0.0085 | -0.0055 ± 0.0064 | -0.009 ± 0.068 | -0.0155 ± 0.054 | -0.0105 ± 0.0035 | 0.0325 ± 0.022 | -0.369 ± 0.13 | 0.0055 ± 0.037 | 0.0115 ± 0.036 | -0.022 ± 0.044 | -0.042 ± 0.035 | -0.0165 ± 0.061 | -0.0445 ± 0.0092 |
| SAg:CXCL9/MIG | -0.003 ± 0.017 | 0.009 ± 0.0014 | -0.002 ± 0.011 | 0.0015 ± 0.00071 | 0.002 ± 0.016 | -0.0075 ± 0.005 | -0.0025 ± 0.012 | 0.009 ± 0.0057 | -0.0015 ± 0.00071 | -0.012 ± 0.0042 | -0.0005 ± 0.005 | -0.0095 ± 0.016 | -0.0135 ± 0.013 | 0.01 ± 0.0042 | -0.0035 ± 0.0035 | 0.0105 ± 0.012 | 0.005 ± 0.013 | -0.0135 ± 0.00071 | 0.005 ± 0.0057 | -0.0035 ± 0.019 |
| BE3C:HLA-DR | 0.008 ± 0.0085 | 0.001 ± 0.013 | 0.0115 ± 0.0021 | 0.01 ± 0.0042 | -0.017 ± 0.0057 | 0.001 ± 0.017 | -0.0035 ± 0.0078 | 0.0025 ± 0.0092 | -0.006 | -0.017 ± 0.0014 | -0.021 ± 0.028 | -0.038 ± 0.021 | -0.08 ± 0.0085 | -0.135 ± 0.017 | -0.0155 ± 0.016 | -0.189 ± 0.014 | -0.409 ± 0.1 | -0.012 ± 0.018 | -0.194 ± 0.023 | -0.191 ± 0.042 |
